Literature values in patent publication US11813289B2, “Encapsulated antimicrobials and related methods of treatment” (ADVANTAGE SILVER DENTAL ARREST, LLC, priority 2018, dated 2023).

Test system: dentinal caries lesions
Details: lesions that had progressed into the dentin

silver diamine fluoride [SDF]
dentinal caries lesions arrested after treatment: two-thirds
